{"source": "patent US6362197B1", "about": "“Compositions and method for treatment of cough” (Cardiome Pharma Corp., priority 1998, dated 2002)", "key": {"[1]": {"tested_on": "citric acid-induced cough responses", "assay": "Citric acid aerosol-induced cough in conscious guinea-pigs, 5 min aerosol pre-treatment", "type": "in vivo, guinea-pig", "settings": "for Mean latency of cough: time to onset of first cough after initiation of citric acid aerosol: 5 min pre-treatment; for Mean latency of cough: time to onset of first cough after initiation of citric acid aerosol / Total coughs: number of coughs over 15 min following initiation of 1M citric acid aerosol: mean ± SEM; for Inhibition of cough responses compared with matched vehicle pre-treated guinea pigs: Example 2, aerosol pre-treatment immediately before citric acid exposure; for Anti-tussive activity (in words): Example 2, experiment similar to Example 1", "from_the_text": "Male albino Dunkin-Hartley strain guinea-pigs (weight 300-400 g) were supplied by Harlan UK Ltd., Bicester, Oxon, UK.\nThe method used was modified from that described by Adcock J. J., Schneider C. and Smith T. W., “Effects of Morphine and a Novel Opioid Pentapeptide BW443C, on Cough, Nociception and Ventilation in the Unanaesthetized Guinea-pig”, Br. J. Pharmacol., 93, 93-100 (1988). Individual conscious guinea-pigs were placed unrestrained into a sealed purpose built perspex exposure chamber (3,000 cm^3 volume) and allowed to acclimatize prior to aerosol administration.\nCylinder air was introduced into the exposure chamber at a flow rate of 1 liter/min, maintained by a needle valve and monitored by a rotameter. From the rotameter the air passed through the cup of an ultrasonic nebulizer (DeVilbis UltraNeb 2000) which was used to generate aerosols of drug or citric acid at 0.15 ml/min. A Fleisch pneumotachograph, connected to a differential pressure transducer (Grass model PT5) was attached to the outflow from the exposure chamber and provided a measurement of airflow from the chamber. The differential pressure transducer was connected to a Grass polygraph from which a hard copy record was produced. The output from the polygraph was directed to a computerized data acquisition system (Poh-Ne-Mah) for real time recording of data. A tie-clip microphone was placed in the exposure chamber and connected via a pre-amplifier to a loudspeaker output to provide the observer with an audio monitor of responses.\nCough responses were induced by exposure to an aerosol of citric acid (1M) for 10 minutes. Animals were continuously monitored by trained observer, and the number of coughs were counted during a 15 minute period from commencement of the citric acid aerosol administration.\nThe three types of response were differentiated primarily by sound and visual observation. […] Data recorded for individual guinea-pigs on the Poh-Ne-Mah system was stored on an optical disk. Each cough was marked on the Grass polygraph paper trace, and from these record numbers, frequency and time of onset of coughs were determined. The cough response was defined by a characteristic coughing sound and behavior, associated with a marked biphasic pressure change.\nQuantities of drugs were weighed out and dissolved in a vehicle. Equal volumes were aliquotted into sample tubes before being passed, together with another sample tube containing the same volume of vehicle, to an independent observer for coding. Pre-treatments were matched by concentration together with a vehicle control group. Five guinea-pigs were randomly allocated to each treatment group. […] The sequence of pre-treatment administration was determined according to a 4×4 Latin Square design.\nData presented as the mean ±SEM number of coughs produced by individual guinea-pigs within each group during the 15 minute observation period or mean±SEM latency of cough were analyzed using one way analysis of variance to compare mean responses between matched groups of animals (doses) and between unmatched groups (treatments) followed by the Tukey-Kramer multiple comparison test where appropriate."}, "[2]": {"tested_on": "citric acid-induced cough responses", "assay": "Duration of anti-tussive effect against citric acid-induced cough, pre-treatment at various times", "type": "in vivo, guinea pig", "settings": "10 mg/ml aerosol", "procedure": "Test agents or vehicle were administered as aerosol pre-treatments (10 mg/ml, 5 minute duration) at 5 minutes, 30 minutes, 1 hour, 2 hours and 4 hours prior to induction of cough responses by citric acid aerosol."}, "[3]": {"tested_on": "citric acid-induced cough responses", "assay": "Therapeutic aerosol treatment after induction of cough by citric acid aerosol", "type": "in vivo, guinea pig", "settings": "aerosol 10 mg/ml for 5 min, given 2 minutes after citric acid exposure began", "protocol": "Vehicle or test agents were administered as aerosols (10 mg/ml; 5 minute duration) 2 minutes after exposure to citric acid aerosol began. Cough responses were recorded during a 15 minute observation period (t=0 to t=15 min.) from initiation of citric acid exposure."}, "[4]": {"tested_on": "citric acid-induced cough responses", "assay": "Citric acid-induced cough responses in ozone-exposed conscious rabbits", "type": "in vivo, rabbit", "settings": "rabbits exposed to ozone 3 ppm 1 hour, aerosol 10 mg/ml, citric acid 1.6 M, 10 minute count; vehicle 22.0±5.1", "procedure": "Investigation of Antitussive Activity of Aerosolized Compound 1 on Citric Acid-induced Cough Responses in Conscious Rabbits\nTwenty-two male New Zealand white rabbits were randomly allocated to either of two groups of 11 rabbits.\nPairs of rabbits (control versus test) were placed in individual exposure chambers with an airflow of 5 liter/min through the chambers.\nEach rabbit was exposed to ozone (3 ppm) for 1 hour.\nThe rabbits were then immediately exposed to aerosols of either vehicle (chamber 1) or Compound 1 (10 mg/ml, chamber 2) at a nebulization rate of 0.9 ml/min.\nCough responses were induced with citric acid aerosol (1.6 M).\nCoughs were counted during the 10 minute exposure to citric acid."}, "[5]": {"tested_on": "capsaicin aerosol-induced cough", "assay": "Capsaicin aerosol-induced cough in conscious guinea pigs, 5 min aerosol pre-treatment", "type": "in vivo, guinea pig", "settings": "for Reduction of number of capsaicin-induced cough responses compared with matched vehicle: 5 minute pre-treatment; for Change of mean latency of cough onset: capsaicin-induced cough"}}, "data": [{"compound": "C[N+](C)(CC(=O)Nc1ccccc1)CC(=O)Nc1ccccc1.[Cl-]", "note": "[Compound 1, N,N-Bis-(phenylcarbamoylmethyl)dimethylammonium chloride]", "values": [{"measurement": "Percentage reduction of the cough response compared with matched vehicle control groups", "setting": "[1]; aerosol conc. 0.1 mg/ml", "result": "(25.3%)"}, {"measurement": "Mean latency of cough: time to onset of first cough after initiation of citric acid aerosol", "setting": "[1]; aerosol conc. 0.1 mg/ml", "result": "88 ± 6", "unit": "s"}, {"measurement": "Total coughs: number of coughs over 15 min following initiation of 1M citric acid aerosol", "setting": "[1]; aerosol conc. 0.1 mg/ml", "result": "22.4 ± 6.0"}, {"measurement": "Cough frequency (in words)", "setting": "[1]; aerosol conc. 1.0 mg/ml", "result": "frequency of coughs was reduced"}, {"measurement": "Percentage reduction of the cough response compared with matched vehicle control groups", "setting": "[1]; aerosol conc. 1.0 mg/ml", "result": "(40.4%)"}, {"measurement": "Mean latency of cough: time to onset of first cough after initiation of citric acid aerosol", "setting": "[1]; aerosol conc. 1.0 mg/ml", "result": "103 ± 11", "unit": "s"}, {"measurement": "Total coughs: number of coughs over 15 min following initiation of 1M citric acid aerosol", "setting": "[1]; aerosol conc. 1.0 mg/ml", "result": "16.8 ± 4.0"}, {"measurement": "Guinea-pigs in the group with cough responses completely inhibited", "setting": "[1]; aerosol conc. 10 mg/ml", "result": "4 of the 5"}, {"measurement": "Latency of cough onset (in words)", "setting": "[1]; aerosol conc. 10 mg/ml", "result": "prolonged the latency of cough onset"}, {"measurement": "Percentage reduction of the cough response compared with matched vehicle control groups", "setting": "[1]; aerosol conc. 10 mg/ml", "result": "(97.6%)"}, {"measurement": "Sneezing in animals that did not cough", "setting": "[1]; aerosol conc. 10 mg/ml", "result": "marked absence of sneezing"}, {"measurement": "Mean latency of cough: time to onset of first cough after initiation of citric acid aerosol", "setting": "[1]; aerosol conc. 10 mg/ml", "result": "778 ± 137^-- seconds"}, {"measurement": "Total coughs: number of coughs over 15 min following initiation of 1M citric acid aerosol", "setting": "[1]; aerosol conc. 10 mg/ml", "result": "0.6 ± 0.6^--"}, {"measurement": "Inhibition of cough responses", "setting": "[2]; pre-treatment 30 minutes before citric acid", "result": 63, "unit": "%"}, {"measurement": "Inhibition of cough responses", "setting": "[2]; pre-treatment 60 minutes before citric acid", "result": 60.7, "unit": "%"}, {"measurement": "Inhibition of cough responses", "setting": "[2]; pre-treatment 2 hours before citric acid", "result": 44.0, "unit": "%"}, {"measurement": "Reduction in mean number of citric acid-induced cough responses", "setting": "[2]; pre-treatment 4 hours before citric acid", "result": 15, "unit": "%"}, {"measurement": "Inhibition of cough responses compared with matched vehicle pre-treated guinea pigs", "setting": "[2]; pre-treatment immediately before citric acid exposure", "result": 84.9, "unit": "%"}, {"measurement": "Increase of latency of cough onset", "setting": "[2]; pre-treatment immediately prior to citric acid exposure", "result": 3.3, "unit": "fold"}, {"measurement": "Inhibition of number of cough responses between t=2 and t=10 minutes", "setting": "[3]", "result": 70.8, "unit": "%"}, {"measurement": "Inhibition of total number of cough responses during the 15 minute observation period compared with matched vehicle", "setting": "[3]; t=0 to t=15 min", "result": 63.8, "unit": "%"}, {"measurement": "Number of citric acid-induced cough responses, mean ± SEM", "setting": "[4]", "result": "2.7±0.9", "unit": "coughs"}, {"measurement": "Reduction of number of capsaicin-induced cough responses compared with matched vehicle", "setting": "[5]; aerosol 10 mg/ml", "result": 25, "unit": "%"}, {"measurement": "Change of mean latency of cough onset", "setting": "[5]; aerosol 10 mg/ml", "result": "no significant effect"}, {"measurement": "Reduction of number of capsaicin-induced cough responses compared with matched vehicle", "setting": "[5]; aerosol 30 mg/ml", "result": 76.9, "unit": "%"}, {"measurement": "Change of mean latency of cough onset", "setting": "[5]; aerosol 30 mg/ml", "result": 2.1, "unit": "fold"}, {"measurement": "melting point", "result": "177 to 178", "unit": "°C"}]}, {"compound": "Cc1cccc(C)c1NC(=O)C[N+](C)(C)C.[Cl-]", "note": "[Compound 2, N-(2,6-dimethylphenylcarbamoylmethyl) trimethylammonium chloride]", "values": [{"measurement": "Inhibition of cough responses compared with matched vehicle pre-treated guinea pigs", "setting": "[1]", "result": "over 80%"}, {"measurement": "Anti-tussive activity (in words)", "setting": "[1]", "result": "effective"}]}, {"compound": "CC[N+](CC)(CC)CC(=O)Nc1c(C)cccc1C.[Cl-]", "note": "[Compound 3, N-(2,6-dimethylphenylcarbamoylmethyl) triethylammonium chloride]", "values": [{"measurement": "Inhibition of cough responses compared with matched vehicle pre-treated guinea pigs", "setting": "[1]", "result": "over 70%"}, {"measurement": "Anti-tussive activity (in words)", "setting": "[1]", "result": "effective"}]}, {"compound": "CCN(CC)CC(=O)Nc1c(C)cccc1C", "note": "[Lidocaine, lidocaine, reference compound]", "values": [{"measurement": "Reduction of number of capsaicin-induced cough responses compared with matched vehicle", "setting": "[5]; aerosol 10 mg/ml", "result": 42.2, "unit": "%"}, {"measurement": "Change of mean latency of cough onset", "setting": "[5]; aerosol 10 mg/ml", "result": 1.2, "unit": "fold"}, {"measurement": "Reduction of number of capsaicin-induced cough responses compared with matched vehicle", "setting": "[5]; aerosol 30 mg/ml", "result": 10.3, "unit": "%"}, {"measurement": "Change of mean latency of cough onset", "setting": "[5]; aerosol 30 mg/ml", "result": 0.8, "unit": "fold"}]}]}
